Test results reported in patent publication US20230248000A1, “ANTIMICROBIAL COMPOUNDS AND METHODS OF USE” (Aequor, Inc., priority 2016, published 2023).
Where “and” joins values, the source holds several entries; their conditions need not be identical. Equal entries are not always repeated.

Columns and labels:
Format in all cases: cell-based, Staphylococcus aureus
S. aureus ATCC 25923 [1] = assay: Minimum Inhibitory Concentration (MIC) on planktonic bacteria, CLSI M07-A9 modified for 96 well plates
S. aureus ATCC 25923 [2] = assay: Biofilm removal, MBEC Assay (ASTM E2799-12)
S. aureus ATCC 25923 [3] = assay: Biofilm prevention (inhibition), 96-well microplate assay

## CCCCOP(=O)(OC)OCCCC [Dibutyl methyl phosphate]
S. aureus ATCC 25923 [1]
  MIC: 0.24%
S. aureus ATCC 25923 [2]
  Biofilm Removal: 99.99%
  MBEC Qualitative: >2.3%
S. aureus ATCC 25923 [3]
  Biofilm Prevention: 99.99%

## CCCCOP(=O)(O)OCCCC [Dibutyl phosphate]
S. aureus ATCC 25923 [1]
  MIC: 0.24% and 0.01%
S. aureus ATCC 25923 [2]
  Biofilm Removal: 99.99%
  MBEC Qualitative: 0.24%
S. aureus ATCC 25923 [3]
  Biofilm Prevention: 99.99%
